Source: patent US7202260B2, “VEGFR-2 and VEGFR-3 inhibitory anthranilamide pyridones” (Schering AG, priority 2003, dated 2007)
Like-named read-outs stand apart in the source and are kept apart here.

Legend:
[1] = molecular target: T1, Cytochrome P450 isoenzyme 3A4 (Homo sapiens, UniProt P08684); assay: Cytochrome P450 inhibition (Crespi et al.); assay type: in vitro ADME; conditions: baculovirus/insect cell-expressed human isoenzyme 3A4
T1 construct: host or cells: baculovirus/insect cells
Protocol: Cytochrome P450 Inhibition
The Cytochrome P450 inhibition was performed according to the publication of Crespi et al. (Anal. Biochem., 248, 188–190 (1997)) with use of the baculovirus/insect cell-expressed and human Cytochrome P450 isoenzyme (3A4).

[2] = molecular target: VEGFR II (KDR) (Homo sapiens, UniProt P35968); assay: Inhibition of the KDR kinase activity (33P-ATP, poly-(Glu4Tyr) filter assay); assay type: biochemical
VEGFR II (KDR), sequence (P35968 20-1356, species assumed): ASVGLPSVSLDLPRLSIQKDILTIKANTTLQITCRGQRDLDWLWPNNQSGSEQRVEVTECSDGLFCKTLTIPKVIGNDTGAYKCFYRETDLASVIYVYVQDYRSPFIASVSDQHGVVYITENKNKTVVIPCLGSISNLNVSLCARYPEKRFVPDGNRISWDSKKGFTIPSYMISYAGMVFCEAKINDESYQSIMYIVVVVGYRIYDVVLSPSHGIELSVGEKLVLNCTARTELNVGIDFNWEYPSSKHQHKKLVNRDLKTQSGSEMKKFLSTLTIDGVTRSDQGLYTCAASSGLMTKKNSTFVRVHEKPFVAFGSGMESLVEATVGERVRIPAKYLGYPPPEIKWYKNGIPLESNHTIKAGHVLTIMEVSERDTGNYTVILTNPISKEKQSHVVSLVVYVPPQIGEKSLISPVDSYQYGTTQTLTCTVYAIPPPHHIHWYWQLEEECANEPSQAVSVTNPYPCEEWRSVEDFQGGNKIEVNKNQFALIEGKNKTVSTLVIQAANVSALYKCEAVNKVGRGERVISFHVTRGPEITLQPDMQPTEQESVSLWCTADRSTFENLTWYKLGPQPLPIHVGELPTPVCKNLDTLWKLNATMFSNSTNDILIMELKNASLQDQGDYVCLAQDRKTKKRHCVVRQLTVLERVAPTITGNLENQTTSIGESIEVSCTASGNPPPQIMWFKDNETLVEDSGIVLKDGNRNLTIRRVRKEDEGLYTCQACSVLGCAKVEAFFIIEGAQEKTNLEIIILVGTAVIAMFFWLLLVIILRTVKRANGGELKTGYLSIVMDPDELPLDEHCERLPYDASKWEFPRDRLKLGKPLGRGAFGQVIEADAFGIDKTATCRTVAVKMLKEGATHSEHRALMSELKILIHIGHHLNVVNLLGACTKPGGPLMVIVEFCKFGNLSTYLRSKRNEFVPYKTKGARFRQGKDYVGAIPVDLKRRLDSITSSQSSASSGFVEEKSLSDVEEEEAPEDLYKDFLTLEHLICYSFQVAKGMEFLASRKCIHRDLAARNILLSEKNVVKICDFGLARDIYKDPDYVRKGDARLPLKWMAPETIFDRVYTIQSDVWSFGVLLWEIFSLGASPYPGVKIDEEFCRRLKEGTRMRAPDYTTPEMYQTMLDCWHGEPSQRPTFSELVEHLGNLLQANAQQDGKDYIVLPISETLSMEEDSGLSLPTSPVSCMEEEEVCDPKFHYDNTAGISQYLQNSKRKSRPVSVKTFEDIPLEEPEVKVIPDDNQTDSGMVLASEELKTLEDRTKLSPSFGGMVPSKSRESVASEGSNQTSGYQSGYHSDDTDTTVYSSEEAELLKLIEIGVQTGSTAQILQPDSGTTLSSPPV
Protocol: • Stock Solutions • Stock solution A: 3 mmol of ATP in water, pH 7.0 (−70° C.) • Stock solution B: g-33P-ATP 1 mCi/100 μl • Stock solution C: poly-(Glu4Tyr) 10 mg/ml in water • Solution for Dilutions • Substrate solvent: 10 mmol of DTT, 10 mmol of manganese chloride, 100 mmol of magnesium chloride • Enzyme solution: 120 mmol of tris/HCl, pH 7.5, 10 μM of sodium vanadium oxide Sample Application 1 Inhibition of the KDR- and FLT-1 Kinase Activity in the Presence of the Compounds According to the Invention
In a microtiter plate (without protein binding) that tapers to a point, 10 μl of substrate mix (10 μl of volume of ATP stock solution A+25 μCi of g-33P-ATP (about 2.5 μl of stock solution B)+30 μl of poly-(Glu4Tyr) stock solution C+1.21 ml of substrate solvent), 10 μl of inhibitor solution (substances corresponding to the dilutions, 3% DMSO in substrate solvent as a control) and 10 μl of enzyme solution (11.25 μg of enzyme stock solution (KDR, FLT-1 or FLT-4 kinase) are added at 4° C. in 1.25 ml of enzyme solution (dilute). It is thoroughly mixed and incubated for 10 minutes at room temperature. Then, 10 μl of stop solution (250 mmol of EDTA, pH 7.0) is added, mixed, and 10 μl of the solution is transferred to a P 81 phosphocellulose filter. […] The filter paper is dried, coated with Meltilex, and measured in a microbeta counter. […]

T1 sequence (P08684 whole entry): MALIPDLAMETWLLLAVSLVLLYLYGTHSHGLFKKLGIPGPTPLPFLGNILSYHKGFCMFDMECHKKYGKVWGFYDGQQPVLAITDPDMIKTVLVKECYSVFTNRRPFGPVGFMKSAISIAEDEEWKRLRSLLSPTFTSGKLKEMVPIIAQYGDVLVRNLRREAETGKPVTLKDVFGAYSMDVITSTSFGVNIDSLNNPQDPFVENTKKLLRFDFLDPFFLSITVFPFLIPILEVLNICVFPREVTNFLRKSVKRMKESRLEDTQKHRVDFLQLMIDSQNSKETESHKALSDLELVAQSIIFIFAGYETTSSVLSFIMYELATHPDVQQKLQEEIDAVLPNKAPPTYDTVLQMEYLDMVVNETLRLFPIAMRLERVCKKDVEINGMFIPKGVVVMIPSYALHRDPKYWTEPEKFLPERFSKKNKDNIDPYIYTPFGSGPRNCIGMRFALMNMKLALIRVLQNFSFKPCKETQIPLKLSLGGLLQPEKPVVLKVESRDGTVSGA

`O=C(Nc1ccc(OC(F)(F)F)cc1)c1ccccc1NCc1ccc(=O)[nH]c1` [Example 1.0, 2-[(6-Oxo-1,6-dihydro-pyridin-3-ylmethyl)-amino]-N-(4-trifluoromethoxy-phenyl)-benzamide] gave an IC50 ([1]; read-out: Inhibition of Cyp 450 3A4 (IC50)) of 5.6 µM and an IC50 [2] of 0.056 µM.

`O=C(Nc1ccc(OCC(F)(F)F)cc1)c1ccccc1NCc1ccc(=O)[nH]c1` [Example 1.5] gave an IC50 ([1]; heading: Inhibition of Cyp 450 3A4) of 11 µM and an IC50 [2] of 0.059 µM.
